Data taken from US9394544B2, “Ameliorating oxidative stress in neurodegenerative disease via Nox1 targeting” (University of Central Florida Research Foundation, Inc., priority 2013, dated 2016).

Legend:
N27 cells = experiment: 8-oxo-dG immunostaining (oxidative DNA damage) in N27 cells; assay type: cell-based, rat
Description: To substantiate that nuclear Nox1/Rac1 complex produces superoxide, it was investigated whether selective inhibition of the Nox1/Rac1 complex attenuates ROS production. Adeno-associated virus serotype 2 (AAV2) expression cassettes with either Nox1 shRNA or a T17N dominant negative Rac1 variant were used to knockdown Nox1 or inhibit Rac1, respectively. These vectors separately expressed Green Fluorescent Protein (GFP) as a marker for transduction efficiency. […] The increased levels of active Nox1/Rac1 complex (FIG. 4B) in the nucleus, and increased ROS (FIGS. 5A and 5B) of DA cells in the presence of 6-OHDA, led one to investigate whether oxidative DNA damage occurs in the nucleus. […] As early as 3 days after striatal injection of 6-OHDA, 8-oxo-dG staining was increased in the SN (FIG. 5E). […]
For fluorescent immunostaining, N27 cells in the 4-well chamber slide were incubated for 1 h at 37° C. in 2% normal donkey serum containing either a rabbit polyclonal antibody against Nox1 (1:500), or p-c-jun (1:500). […] Specific binding was detected by incubation for 60 min at room temperature with a 1:200 dilution of secondary antibodies conjugated to AlexaFluor 546 dyes. […] Mounted slices were evaluated for fluorescence under settings for 546 and 488 nm emissions on a confocal microscope.

Nox1 = Nox1 expression (RT-PCR, immunoblot) in N27 cells exposed to toxins; assay type: cell-based, rat; conditions: N27 cells
Description: The NADPH oxidase is a multi-subunit enzyme that consists of the catalytic subunits (Nox isoforms) together with the regulatory subunits including p22phox, p47phox, p40phox, p67phox, Nox organizer 1 (Noxo1), Nox activator 1 (Noxa1), and small GTPase Rac1. In order to test whether dopaminergic (DA) cells are equipped with the NOX components, N27, a well-established rat DA cell line was examined (Prasad et al. 1994). The mRNAs encoding each Nox isoform and regulatory subunits were detected using RT-PCR. Since transcriptional induction of Nox1 and Nox4 has already been reported in several tissues under a variety of stimuli, transcripts were determined in both nontreated and 6-hydroxydopamine (6-OHDA), a DA neurodegenerative compound, treated DA cells. ROS generation as induced by 6-OHDA (100 μM) and subsequent cell death was observed. All Nox isoforms (Nox1, Nox2, Nox4, Duox1 and Duox2) except Nox3 and Nox5 were detected (FIG. 1A). […] Mitochondria, which have long been considered as a major source of ROS, play a key role in Nox1-mediated superoxide generation (Desouki et al. 2005). […] Cytoplasmic regulatory subunits including p47phox, Noxa1, and Noxo1 were constitutively expressed in DA cells as well (FIG. 1A). Noxa1 and Noxo1 are homologues of p67phox and p47phox, respectively. They are involved in Nox1-mediated superoxide generation (Banfi et al. 2003, Geiszt et al. 2003). […] The activation of a small GTPase Rac1 is indispensable for Nox1 and Nox2 activation (Bokoch 2002). GTP-bound active Rac1 was measured in DA cells treated with 6-OHDA for various duration from 1 h to 6 h.
Total RNA was extracted from N27 cells using Trizol reagent (Invitrogen, Carlsbad, Calif.). Reverse transcription was performed for 1 h at 42° C. with 1 μg of total RNA using 20 unit/μl of AMV reverse transcriptase (Roche Applied Science, Indianapolis, Ind.), and oligo-p(dT)15 as a primer. The samples were then heated at 99° C. for 5 min to terminate the reaction. The cDNA obtained from 1 μg total RNA was used as a template for PCR amplification. Oligonucleotide primers were designed based on Genebank entries for rat NOX1 (sense, 5′-[…]-3′ SEQ ID NO. 1; antisense, 5′-[…]-3′ SEQ ID NO. 2), rat NOX2 (sense, 5′-[…]-3′ SEQ ID NO. 3; antisense, 5′-[…]-3′ SEQ ID NO. 4), rat NOX4 (sense, 5′-[…]-3′ SEQ ID NO. 5; antisense, 5′-[…]-3′ SEQ ID NO. 6), rat NOXA1 (sense, 5′-[…]-3′ SEQ ID NO. 7; antisense, 5′-[…]-3′ SEQ ID NO. 8), rat NOXO1 (sense, 5′-[…]-3′ SEQ ID NO. 9; antisense, 5′-[…]-3′ SEQ ID NO. 10), rat p47 (sense, 5′-[…]-3′ SEQ ID NO 11; antisense, 5′-[…]-3′ SEQ ID NO. 12), rat Duox1 (sense, 5′-[…]-3′ SEQ ID NO. 13; antisense, 5′-[…]-3′SEQ ID NO. 14), rat Duox2 (sense, 5′-[…]-3′ SEQ ID NO. 15; antisense, 5′-[…]-3′ SEQ ID NO. 16) and rat GAPDH (sense, 5′-[…]-3′ SEQ ID NO. 17; antisense, 5′-[…]-3′ SEQ ID NO. 18). PCR mixes contained 10 μl of 2×PCR buffer, 1.25 mM of each dNTP, 10 pmol of each forward and reverse primer, and 2.5 units of Taq polymerase in the final volume of 20 μl. Amplification was performed in 35 cycles at 60° C., 30 sec; 72° C., 1 min; 94° C., 30 sec. After the last cycle, all samples were incubated for an additional 10 min at 72° C. for final extension step. PCR fragments were analyzed on 1.2% agarose gel in 0.5×TAE containing ethidium bromide. Amplification of GAPDH, a relatively invariant internal reference RNA, was performed in parallel, and cDNA amounts were normalized against GAPDH mRNA levels. The primer set specifically recognized only the gene of interest as indicated by amplification of a single band of expected size. […]

With `NCCc1cc(O)c(O)cc1O` [6-OHDA, 6-hydroxydopamine] the “DNA oxidative damage (8-oxo-dG immunoreactivity in the nucleus) caused by toxin” value (N27 cells) was “increased DNA oxidative damage”, the “Nox1 mRNA (RT-PCR)” value (Nox1; 100 μM, 6 h) was “robustly induced” and the “Nox1 expression (immunoblot)” value (Nox1; 24 h) was “induced Nox1 expression in a dose-dependent manner”.
